Assay results: patent publication US7687489B2, “Agent for treatment of cerebral ischemic diseases” (Ono Pharmaceutical Co., Ltd., priority 2001, dated 2010)

Experiments:
[1] = system: thrombin-induced focal cerebral ischemic model; assay: Thrombin-induced focal cerebral ischemic model: survival and neurological symptom score; assay type: in vivo, male Wistar rats
Procedure: Twenty male Wistar rats (8-weeks age) were used as one group. The rats were anesthetized with halothane, followed by incision and then subjected to carotid artery shunting. A polyethylene catheter containing thrombin (10 international units) was catheterized into the carotid artery, and […] of blood was sucked and reserved in the catheter for 10 minutes. Then, thrombus formed in the catheter was infused into the carotid artery together with thrombin (J. Cereb. Blood Flow Metab., 17, 123 (1997)).
The neurological symptoms of said rats were scored according to the method as described in Brain Res., 452, 323 (1988). The evaluation of score was carried out at 6 hours, 24 hours, 48 hours and 72 hours after infusion of thrombin, and the scores were accumulated. The survival period was determined by monitoring surviving or dead rats at intervals of one hour for the first 72 hours after the infusion of thrombin.
From forty minutes after thrombin infusion, t-PA (Activacin 100,000 international units, product of Kyowa Hakko Kogyo Co., Ltd.) was continuously administered in an amount of 33 μL/min to the anesthetized rats for 15 minutes. (R)-2-propyloctanoic acid (hereinafter referred to as compound A) in an amount of 10 mg/mL/kg was administered through tail vein of the rats three times at 6 hours, 24 hours and 48 hours after the infusion of thrombin.

dogs = settings: dog, in vivo, 100 mg/kg
Description: The toxicity of the astrocyte function-improving agent of the present invention is sufficiently very low and has been confirmed to be safe enough for pharmaceutical use.

[2] = accumulated score, rats surviving 72 h, average ± standard error

For CCCCCC[C@@H](CCC)C(=O)O [Compound A, (R)-2-propyloctanoic acid], the “Survival rate after 72 hours” value ([1]; 72 hours after thrombin infusion, 20 rats per group, * p<0.05 vs control (Log-rank test)) was 60.0%*^), the “No. of surviving rats” value ([1]; 72 hours after thrombin infusion, 20 rats per group, t-PA infused from 40 min for 15 min, compound A 10 mg/mL/kg i.v. at 6, 24, 48 h) was 12 and the “Neurological symptom score, 0 to 6 hours” value [1, 2] was 3.4 ± 0.1. The “Neurological symptom score, 0 to 24 hours” value [1, 2] was 3.3 ± 0.1, the “Neurological symptom score, 0 to 48 hours” value [1, 2] was 3.3 ± 0.1 and the “Neurological symptom score, 0 to 72 hours” value [1, 2] was 3.2 ± 0.2. The “Death after single intravenous administration” value (dogs) was “no death was observed”.
